pIC50: −log10 of the molar value. Like-named read-outs stand apart in the source and are kept apart here.
Legend:
CDK9/Cyclin K = CDK9/Cyclin K (Homo sapiens, UniProt P50750); experiment: NanoBRET live-cell target engagement, NanoLuc-CDK9/Cyclin K in HEK-293; assay type: binding; details: CDK9/K, read-out: Inhibition at 10µM (%)
CDK13/Cyclin K = CDK13/Cyclin K (Homo sapiens, UniProt Q14004); experiment: NanoBRET live-cell target engagement, CDK13-NanoLuc/Cyclin K in HEK-293; assay type: binding; details: for inhibition at 10 µM: CDK13/K, read-out: Inhibition at 10µM (%)
CDK8/Cyclin C = CDK8/Cyclin C (Homo sapiens, UniProt P49336); experiment: NanoBRET live-cell target engagement, NanoLuc-CDK8/Cyclin C in HEK-293; assay type: binding; details: CDK8/C, read-out: Inhibition at 10µM (%)
CDK7 = CDK7 (Homo sapiens, UniProt P50613); experiment: NanoBRET live-cell target engagement, NanoLuc-CDK7 in HEK-293; assay type: binding; details: CDK7, read-out: Inhibition at 10µM (%)
CDK7, sequence (P50613 whole entry): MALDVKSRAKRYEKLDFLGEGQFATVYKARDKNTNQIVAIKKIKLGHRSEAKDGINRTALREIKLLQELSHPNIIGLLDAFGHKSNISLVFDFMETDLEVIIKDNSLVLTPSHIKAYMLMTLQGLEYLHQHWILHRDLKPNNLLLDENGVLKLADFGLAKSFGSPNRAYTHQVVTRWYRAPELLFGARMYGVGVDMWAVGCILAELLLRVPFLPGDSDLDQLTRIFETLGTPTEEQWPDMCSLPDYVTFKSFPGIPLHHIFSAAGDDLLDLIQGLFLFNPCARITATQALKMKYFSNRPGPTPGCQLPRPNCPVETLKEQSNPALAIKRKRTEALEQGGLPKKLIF

CDK11B/Cyclin L2 = CDK11B/Cyclin L2 (Homo sapiens, UniProt P21127); experiment: NanoBRET live-cell target engagement, CDK11B-NanoLuc/Cyclin L2 in HEK-293; assay type: binding; details: CDK11b/L2, read-out: Inhibition at 10µM (%)
CDK11B/Cyclin L2, sequence (P21127 1-782 isoform P21127-2): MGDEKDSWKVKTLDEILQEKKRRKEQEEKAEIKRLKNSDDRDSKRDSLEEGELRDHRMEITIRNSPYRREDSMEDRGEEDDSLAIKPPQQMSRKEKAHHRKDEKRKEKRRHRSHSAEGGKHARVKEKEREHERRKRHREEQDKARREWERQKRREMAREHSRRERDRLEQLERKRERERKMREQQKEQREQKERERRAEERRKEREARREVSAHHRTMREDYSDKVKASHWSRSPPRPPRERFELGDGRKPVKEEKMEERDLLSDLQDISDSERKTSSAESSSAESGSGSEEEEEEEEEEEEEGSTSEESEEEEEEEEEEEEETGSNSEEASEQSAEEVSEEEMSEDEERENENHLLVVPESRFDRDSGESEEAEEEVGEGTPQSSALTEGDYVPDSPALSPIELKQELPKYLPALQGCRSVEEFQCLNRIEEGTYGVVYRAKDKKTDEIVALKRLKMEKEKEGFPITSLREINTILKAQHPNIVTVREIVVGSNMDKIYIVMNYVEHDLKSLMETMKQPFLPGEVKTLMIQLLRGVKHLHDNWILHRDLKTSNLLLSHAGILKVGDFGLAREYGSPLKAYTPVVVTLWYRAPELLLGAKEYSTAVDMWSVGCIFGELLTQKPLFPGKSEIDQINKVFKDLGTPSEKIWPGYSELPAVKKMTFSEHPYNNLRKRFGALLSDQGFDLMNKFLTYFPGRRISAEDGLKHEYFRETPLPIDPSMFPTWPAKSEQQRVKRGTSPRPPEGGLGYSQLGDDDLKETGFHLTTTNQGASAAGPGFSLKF

CDK12/Cyclin K = CDK12/Cyclin K (Homo sapiens, UniProt Q9NYV4); experiment: NanoBRET live-cell target engagement, CDK12-NanoLuc/Cyclin K in HEK-293; assay type: binding; details: for inhibition at 10 µM: CDK12/K, read-out: Inhibition at 10µM (%)
CDK12/Cyclin K, sequence (Q9NYV4 1-1481 isoform Q9NYV4-2): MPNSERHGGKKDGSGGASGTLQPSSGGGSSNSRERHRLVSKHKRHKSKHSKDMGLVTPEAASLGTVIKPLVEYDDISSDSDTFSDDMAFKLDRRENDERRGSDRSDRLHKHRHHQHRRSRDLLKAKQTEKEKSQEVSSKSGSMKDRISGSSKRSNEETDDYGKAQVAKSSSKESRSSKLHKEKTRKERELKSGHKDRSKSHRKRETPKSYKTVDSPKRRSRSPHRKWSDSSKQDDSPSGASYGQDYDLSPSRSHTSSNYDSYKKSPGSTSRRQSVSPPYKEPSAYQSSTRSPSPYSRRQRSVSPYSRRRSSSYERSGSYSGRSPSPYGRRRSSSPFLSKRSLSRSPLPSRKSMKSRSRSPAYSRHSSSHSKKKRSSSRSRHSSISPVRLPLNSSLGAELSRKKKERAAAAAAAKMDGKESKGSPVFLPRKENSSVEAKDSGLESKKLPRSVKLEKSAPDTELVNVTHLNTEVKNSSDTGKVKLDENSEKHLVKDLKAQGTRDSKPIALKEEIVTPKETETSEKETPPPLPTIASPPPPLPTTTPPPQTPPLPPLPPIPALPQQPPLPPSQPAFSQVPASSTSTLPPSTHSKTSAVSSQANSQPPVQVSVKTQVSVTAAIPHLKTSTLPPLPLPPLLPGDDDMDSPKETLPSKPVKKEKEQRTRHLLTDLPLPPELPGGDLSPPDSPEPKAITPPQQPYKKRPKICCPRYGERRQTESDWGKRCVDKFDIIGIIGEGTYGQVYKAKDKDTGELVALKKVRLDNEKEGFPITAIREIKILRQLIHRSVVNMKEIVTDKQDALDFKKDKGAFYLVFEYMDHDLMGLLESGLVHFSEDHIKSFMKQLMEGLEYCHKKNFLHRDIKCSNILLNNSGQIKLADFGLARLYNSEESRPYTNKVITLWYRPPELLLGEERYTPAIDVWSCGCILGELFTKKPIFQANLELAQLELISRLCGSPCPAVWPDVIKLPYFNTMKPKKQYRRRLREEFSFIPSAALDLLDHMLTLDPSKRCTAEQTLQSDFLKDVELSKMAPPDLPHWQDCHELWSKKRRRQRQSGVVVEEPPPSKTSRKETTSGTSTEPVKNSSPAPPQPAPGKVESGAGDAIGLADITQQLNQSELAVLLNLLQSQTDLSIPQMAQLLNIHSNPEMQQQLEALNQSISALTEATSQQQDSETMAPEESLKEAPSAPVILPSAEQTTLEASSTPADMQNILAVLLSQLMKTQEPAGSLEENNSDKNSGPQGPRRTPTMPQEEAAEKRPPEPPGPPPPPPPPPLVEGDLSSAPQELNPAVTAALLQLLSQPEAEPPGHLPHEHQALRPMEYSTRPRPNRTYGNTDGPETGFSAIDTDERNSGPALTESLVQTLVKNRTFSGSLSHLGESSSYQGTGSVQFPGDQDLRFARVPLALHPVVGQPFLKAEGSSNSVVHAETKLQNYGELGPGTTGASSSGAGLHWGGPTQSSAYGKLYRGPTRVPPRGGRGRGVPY
CDK12/Cyclin K, sequence (O75909 whole entry partner): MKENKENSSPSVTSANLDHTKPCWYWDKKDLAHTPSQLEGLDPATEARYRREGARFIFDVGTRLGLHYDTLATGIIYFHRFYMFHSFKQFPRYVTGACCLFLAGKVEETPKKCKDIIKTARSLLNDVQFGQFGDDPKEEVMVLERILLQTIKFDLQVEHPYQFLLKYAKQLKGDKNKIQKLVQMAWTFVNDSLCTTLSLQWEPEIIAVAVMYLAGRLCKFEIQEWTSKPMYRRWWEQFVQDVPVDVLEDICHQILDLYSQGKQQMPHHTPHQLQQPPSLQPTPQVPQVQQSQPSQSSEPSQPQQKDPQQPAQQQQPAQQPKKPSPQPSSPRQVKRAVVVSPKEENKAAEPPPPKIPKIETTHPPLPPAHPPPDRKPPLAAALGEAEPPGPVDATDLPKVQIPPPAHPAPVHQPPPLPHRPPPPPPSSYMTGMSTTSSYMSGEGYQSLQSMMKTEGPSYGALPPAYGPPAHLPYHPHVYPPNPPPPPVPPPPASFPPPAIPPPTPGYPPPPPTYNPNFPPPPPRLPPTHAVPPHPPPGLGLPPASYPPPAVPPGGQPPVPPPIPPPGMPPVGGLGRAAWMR

CDK2/Cyclin E1 = CDK2/Cyclin E1 (Homo sapiens, UniProt P24941); experiment: NanoBRET live-cell target engagement, CDK2-NanoLuc/Cyclin E1 in HEK-293; assay type: binding; details: CDK2/E1, read-out: Inhibition at 10µM (%)
CDK19/Cyclin C = CDK19/Cyclin C (Homo sapiens, UniProt Q9BWU1); experiment: NanoBRET live-cell target engagement, NanoLuc-CDK19/Cyclin C in HEK-293; details: for IC50: IC50 (nM); for inhibition at 10 µM: read-out: Inhibition at 10µM (%), CDK19/C
CDK11A/Cyclin L2 = biological target: T1, CDK11A/Cyclin L2 (Homo sapiens, UniProt Q9UQ88); experiment: NanoBRET live-cell target engagement, CDK11A-NanoLuc/Cyclin L2 in HEK-293; assay type: binding; details: CDK11a/L2, read-out: Inhibition at 10µM (%)
T1 sequence (Q9UQ88 1-783): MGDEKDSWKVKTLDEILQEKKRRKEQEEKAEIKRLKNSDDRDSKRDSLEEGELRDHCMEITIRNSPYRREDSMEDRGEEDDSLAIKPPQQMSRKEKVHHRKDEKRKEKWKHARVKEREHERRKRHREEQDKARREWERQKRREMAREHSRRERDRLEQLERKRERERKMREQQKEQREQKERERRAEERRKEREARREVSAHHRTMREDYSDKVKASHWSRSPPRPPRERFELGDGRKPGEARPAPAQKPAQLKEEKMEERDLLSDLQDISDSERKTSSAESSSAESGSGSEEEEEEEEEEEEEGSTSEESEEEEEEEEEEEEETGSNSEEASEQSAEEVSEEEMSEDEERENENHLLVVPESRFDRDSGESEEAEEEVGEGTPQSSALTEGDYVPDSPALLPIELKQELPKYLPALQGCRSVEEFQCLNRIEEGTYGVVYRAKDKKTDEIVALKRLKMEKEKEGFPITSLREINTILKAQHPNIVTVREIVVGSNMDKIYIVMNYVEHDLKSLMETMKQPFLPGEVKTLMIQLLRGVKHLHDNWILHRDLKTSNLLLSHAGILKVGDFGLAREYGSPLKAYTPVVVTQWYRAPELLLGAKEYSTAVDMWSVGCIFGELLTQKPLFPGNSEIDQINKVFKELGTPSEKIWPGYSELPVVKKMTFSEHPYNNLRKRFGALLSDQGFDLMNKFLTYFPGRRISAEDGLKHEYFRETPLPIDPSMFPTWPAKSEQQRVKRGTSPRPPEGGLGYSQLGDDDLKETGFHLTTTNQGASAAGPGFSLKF

CDK6/Cyclin D1 = CDK6/Cyclin D1 (Homo sapiens, UniProt Q00534); experiment: NanoBRET live-cell target engagement, NanoLuc-CDK6/Cyclin D1 in HEK-293; assay type: binding; details: CDK6/D1, read-out: Inhibition at 10µM (%)
CDK6/Cyclin D1, sequence (Q00534 whole entry): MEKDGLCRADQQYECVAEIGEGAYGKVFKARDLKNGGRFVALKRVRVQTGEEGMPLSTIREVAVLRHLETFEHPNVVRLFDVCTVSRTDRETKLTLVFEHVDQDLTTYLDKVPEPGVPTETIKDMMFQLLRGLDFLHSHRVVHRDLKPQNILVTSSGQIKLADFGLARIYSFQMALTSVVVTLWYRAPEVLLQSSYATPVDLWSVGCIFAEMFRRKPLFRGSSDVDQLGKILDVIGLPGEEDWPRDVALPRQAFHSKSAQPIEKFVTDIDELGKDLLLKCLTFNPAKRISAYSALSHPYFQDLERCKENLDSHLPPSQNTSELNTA
CDK6/Cyclin D1, sequence (P24385 whole entry partner): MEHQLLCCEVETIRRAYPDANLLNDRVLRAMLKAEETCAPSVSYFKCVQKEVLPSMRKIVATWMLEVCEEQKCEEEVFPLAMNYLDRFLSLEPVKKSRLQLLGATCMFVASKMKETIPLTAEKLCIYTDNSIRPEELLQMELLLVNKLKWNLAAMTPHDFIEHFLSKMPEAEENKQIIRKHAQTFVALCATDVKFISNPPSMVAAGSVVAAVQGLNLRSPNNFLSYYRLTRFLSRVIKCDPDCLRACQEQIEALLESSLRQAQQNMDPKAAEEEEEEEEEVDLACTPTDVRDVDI

CDK1/Cyclin E1 = CDK1/Cyclin E1 (Homo sapiens, UniProt P06493); experiment: NanoBRET live-cell target engagement, CDK1-NanoLuc/Cyclin E1 in HEK-293; assay type: binding; details: CDK1/E1, read-out: Inhibition at 10µM (%)
CDK20/Cyclin H = CDK20/Cyclin H (Homo sapiens, UniProt Q8IZL9); experiment: NanoBRET live-cell target engagement, NanoLuc-CDK20/Cyclin H in HEK-293; assay type: binding; details: CDK20/H, read-out: Inhibition at 10µM (%)
CDK5/CDK5R1 = CDK5/CDK5R1 (Homo sapiens, UniProt Q00535); experiment: NanoBRET live-cell target engagement, CDK5-NanoLuc/CDK5R1 in HEK-293; assay type: binding; details: CDK5/CDK5R1, read-out: Inhibition at 10µM (%)
CDK5/CDK5R1, sequence (Q00535 whole entry): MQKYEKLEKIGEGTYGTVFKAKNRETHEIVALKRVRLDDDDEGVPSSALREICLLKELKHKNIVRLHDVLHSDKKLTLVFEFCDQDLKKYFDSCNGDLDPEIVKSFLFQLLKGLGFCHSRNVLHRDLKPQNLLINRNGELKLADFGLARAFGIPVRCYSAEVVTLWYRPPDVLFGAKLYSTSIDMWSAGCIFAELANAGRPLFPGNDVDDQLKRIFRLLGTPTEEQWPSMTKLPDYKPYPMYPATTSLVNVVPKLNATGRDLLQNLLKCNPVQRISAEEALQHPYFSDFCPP
CDK5/CDK5R1, sequence (Q15078 whole entry partner): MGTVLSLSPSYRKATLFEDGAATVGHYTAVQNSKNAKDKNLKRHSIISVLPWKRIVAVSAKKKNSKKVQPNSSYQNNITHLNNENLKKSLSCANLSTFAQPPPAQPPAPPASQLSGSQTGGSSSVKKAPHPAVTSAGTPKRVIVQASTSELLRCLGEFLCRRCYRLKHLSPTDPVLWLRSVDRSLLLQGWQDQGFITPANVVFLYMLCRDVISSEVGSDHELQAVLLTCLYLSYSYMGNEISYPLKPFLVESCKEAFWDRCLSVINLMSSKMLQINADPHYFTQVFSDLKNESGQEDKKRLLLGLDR

CDK3/Cyclin E1 = CDK3/Cyclin E1 (Homo sapiens, UniProt Q00526); experiment: NanoBRET live-cell target engagement, CDK3-NanoLuc/Cyclin E1 in HEK-293; assay type: binding; details: CDK3/E1, read-out: Inhibition at 10µM (%)
CDK4/Cyclin D1 = CDK4/Cyclin D1 (Homo sapiens, UniProt P11802); experiment: NanoBRET live-cell target engagement, NanoLuc-CDK4/Cyclin D1 in HEK-293; assay type: binding; details: CDK4/D1, read-out: Inhibition at 10µM (%)

CDK9/Cyclin K, sequence (P50750 whole entry): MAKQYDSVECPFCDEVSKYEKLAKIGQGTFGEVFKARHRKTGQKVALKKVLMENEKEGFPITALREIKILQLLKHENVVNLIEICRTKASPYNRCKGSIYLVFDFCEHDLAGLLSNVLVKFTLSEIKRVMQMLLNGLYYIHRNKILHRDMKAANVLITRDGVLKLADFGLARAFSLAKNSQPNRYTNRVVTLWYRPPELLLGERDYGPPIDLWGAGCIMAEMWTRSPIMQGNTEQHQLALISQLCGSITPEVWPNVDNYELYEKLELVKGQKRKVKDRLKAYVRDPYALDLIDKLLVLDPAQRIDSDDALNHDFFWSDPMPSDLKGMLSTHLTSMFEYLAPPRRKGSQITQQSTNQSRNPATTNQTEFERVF
CDK9/Cyclin K, sequence (O75909 whole entry partner): as the sequence (O75909 whole entry partner) above

inhibition at 10 µM (CDK9/Cyclin K; average): 97.8%
inhibition at 10 µM (CDK9/Cyclin K; experiment 1): 97.5%
inhibition at 10 µM (CDK9/Cyclin K; experiment 2): 98%
inhibition at 10 µM (CDK13/Cyclin K; average): 28%
inhibition at 10 µM (CDK13/Cyclin K; experiment 1): 33.4%
inhibition at 10 µM (CDK13/Cyclin K; experiment 2): 22.5%
receptor occupancy at 10 µM (CDK13/Cyclin K; primary screen, live HEK-293): ~50%
inhibition at 10 µM (CDK8/Cyclin C; average): 95.7%
inhibition at 10 µM (CDK8/Cyclin C; experiment 1): 96.6%
inhibition at 10 µM (CDK8/Cyclin C; experiment 2): 94.9%
inhibition at 10 µM (CDK7; average): 72.3%
inhibition at 10 µM (CDK7; experiment 1): 65.8%
inhibition at 10 µM (CDK7; experiment 2): 78.8%
inhibition at 10 µM (CDK11B/Cyclin L2; average): 47.4%
inhibition at 10 µM (CDK11B/Cyclin L2; experiment 1): 40.9%
inhibition at 10 µM (CDK11B/Cyclin L2; experiment 2): 54%
inhibition at 10 µM (CDK12/Cyclin K; average): 48.6%
inhibition at 10 µM (CDK12/Cyclin K; experiment 1): 51.7%
inhibition at 10 µM (CDK12/Cyclin K; experiment 2): 45.6%
receptor occupancy at 10 µM (CDK12/Cyclin K; primary screen, live HEK-293, read-out: CDK12 occupancy at 10 µM): ~50%
inhibition at 10 µM (CDK2/Cyclin E1; average): 75%
inhibition at 10 µM (CDK2/Cyclin E1; experiment 1): 74.5%
inhibition at 10 µM (CDK2/Cyclin E1; experiment 2): 75.4%
IC50 (CDK19/Cyclin C; CDK19/C, experiment 1): 19 nM
IC50 (CDK19/Cyclin C; CDK19/C, experiment 2): 18 nM
IC50 (CDK19/Cyclin C; CDK19/Y (so in the source), average (± SEM where n=3)): 19 nM
pIC50 (CDK19/Cyclin C; IC50 for CDK/cyclin complexes, CDK19/C, live HEK-293, 2 h, mean ± S.E.M. (n=3) or mean (n=2)): 7.72
inhibition at 10 µM (CDK19/Cyclin C; average): 95.8%
inhibition at 10 µM (CDK19/Cyclin C; experiment 1): 98%
inhibition at 10 µM (CDK19/Cyclin C; experiment 2): 93.5%
inhibition at 10 µM (CDK11A/Cyclin L2; average): 27.7%
inhibition at 10 µM (CDK11A/Cyclin L2; experiment 1): 30.2%
inhibition at 10 µM (CDK11A/Cyclin L2; experiment 2): 25.2%
inhibition at 10 µM (CDK6/Cyclin D1; average): 86.6%
inhibition at 10 µM (CDK6/Cyclin D1; experiment 1): 83.3%
inhibition at 10 µM (CDK6/Cyclin D1; experiment 2): 89.9%
inhibition at 10 µM (CDK1/Cyclin E1; average): 72.2%
inhibition at 10 µM (CDK1/Cyclin E1; experiment 1): 65.7%
inhibition at 10 µM (CDK1/Cyclin E1; experiment 2): 78.8%
inhibition at 10 µM (CDK20/Cyclin H; experiment 1): 6.3%
inhibition at 10 µM (CDK20/Cyclin H; experiment 2): 6.5%
inhibition at 10 µM (CDK5/CDK5R1; average): 83.1%
inhibition at 10 µM (CDK5/CDK5R1; experiment 1): 85%
inhibition at 10 µM (CDK5/CDK5R1; experiment 2): 81.1%
inhibition at 10 µM (CDK3/Cyclin E1; average): 80.6%
inhibition at 10 µM (CDK3/Cyclin E1; experiment 1): 78%
inhibition at 10 µM (CDK3/Cyclin E1; experiment 2): 83.3%
inhibition at 10 µM (CDK4/Cyclin D1; average): 90.8%
inhibition at 10 µM (CDK4/Cyclin D1; experiment 1): 88.6%
inhibition at 10 µM (CDK4/Cyclin D1; experiment 2): 93%
SMILES: CN1CC[C@H](c2c(O)cc(O)c3c(=O)cc(-c4ccccc4Cl)oc23)[C@H](O)C1 [Flavopiridol]

From publication PMC7265341, “Quantifying CDK inhibitor selectivity in live cells” (Nature Communications, 2020)
